The results in this text go back to paper PMC7232201 (Microorganisms, 2020).

Counter-ions that a name gives are not always drawn.

This assay deals with T1, ArsR (Helicobacter pylori, UniProt O24973).
T1 construct: expressed in E. coli BL21(DE3)
T1 sequence (O24973 whole entry): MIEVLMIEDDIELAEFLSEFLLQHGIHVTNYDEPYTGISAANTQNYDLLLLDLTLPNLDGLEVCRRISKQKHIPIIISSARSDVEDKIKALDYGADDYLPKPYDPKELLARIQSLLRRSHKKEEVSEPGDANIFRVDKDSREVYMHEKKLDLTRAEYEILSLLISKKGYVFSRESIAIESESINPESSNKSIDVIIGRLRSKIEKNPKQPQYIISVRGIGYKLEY
Nature of the assay: isothermal titration calorimetry. To be noted: read-out: ITC ^a / Kd. Type of assay: binding. A general note: ITC needs no label: the signal is the heat of the interaction.
With `C[C@H](CCC(=O)O)[C@H]1CC[C@H]2[C@@H]3CC[C@@H]4C[C@H](O)CC[C@]4(C)[C@H]3CC[C@]12C` [Lithocholic acid], the Kd was determined as 4.9 µM.
Take `CCCCCN(CCCCC)C(=O)C(CCC(=O)O)NC(=O)c1ccc(Cl)c(Cl)c1` (stereo not drawn) [Lorglumide sodium salt]: the Kd stood at 0.67 µM.
In the case of `CC[N+](C)(CC)CCC[n+]1c(-c2ccccc2)c2cc(N)ccc2c2ccc(N)cc21` [Propidium iodide], the Kd was determined as 18 µM.
